Results: patent US6642177B1, “Sarcoslnates as glufosinate adjuvants” (Hampshire Chemical Corp., priority 1998, dated 2003)

Experiments:
Assay type in all cases: in vivo
[1] = tested on: Setia = Foxtail., Giant - setaria; assay: % control of giant foxtail 27 days after treatment; settings: rate 0.32 lbs. ai/A
[2] = tested on: Porol = Purslane, Common - Portulaca oleraca; assay: % control of common purslane 27 days after treatment; settings: rate 0.32 lbs. ai/A
[3] = tested on: Plant Species (Setia, Porol, Amabl, Polpy, Sotlu); nuisance weeds; assay: % control over the five plant species (total, average) 27 days after treatment; settings: rate 0.32 lbs. ai/A
[4] = tested on: glufosinate tolerant field corn variety Pioneer 34A55; assay: Phytotoxicity rating on glufosinate tolerant field corn (chlorosis, necrosis, abnormal growth); settings: 1.46 Lbs ai/acre, 10 ml into the whorl
Protocol: Seeds were germinated in 4 inch pots and maintained for one month with regular watering and temperatures to simulate field conditions. […] Each treatment was replicated four times in a randomized complete block design. […] The volume of 10 ml was selected to fill the whorl of the largest plant in the study, all others were filled to running over.
An application volume of 15 gal/acre was used to determine the mix concentration used.
The treatments were evaluated for phytotoxicity in the form of chlorosis, necrosis and abnormal growth by visually inspecting each plant. When damage was present, each plant was given a damage rating from 0 to 10 with 0 indicating no effect and 10 indicating death.

[5] = tested on: Setiu + Foxtail, Yellow - Sataria Leutescens; assay: % control of yellow foxtail 27 days after treatment; settings: rate 0.32 lbs. ai/A
[6] = tested on: Amabl = Pigweed, Prostrate - Amaranthus blitoides; assay: % control of prostrate pigweed 27 days after treatment; settings: rate 0.32 lbs. ai/A
[7] = tested on: Polpy = Smartweed, Pennsylvania - Polygonium pensylvanicum; assay: % control of Pennsylvania smartweed 27 days after treatment; settings: rate 0.32 lbs. ai/A

2-amino-4-(hydroxymethyl phosphinyl) butanoic acid [Glufosinate]
% Control 27 Days After Treatment, Setia [1]: 61.67% | % Control 27 Days After Treatment, Porol [2]: 78.33% | % Control 27 Days After Treatment, Average ([3]; average over five plant species): 71.00% | % Control 27 Days After Treatment, Total ([3]; sum over five plant species): 355.00% | Ratings 20 days after treatment (damage rating 0 to 10, 0 no effect, 10 death) [4]: 0.8 b | % Control 27 Days After Treatment, Sotlu [5]: 60.00% | % Control 27 Days After Treatment, Amabl [6]: 73.33% | % Control 27 Days After Treatment, Polpy [7]: 81.67%
